The test system of one data set is HeLa. Nature of the data set: Antiproliferative activity against human HeLa cells assessed as cell growth inhibition incubated for 48 hrs by MTT assay. In kind it is functional, cell-based.
Data set [1] can be described thus: Cytotoxicity against human HEK293T cells assessed as cell growth inhibition incubated for 48 hrs by MTT assay. In kind it is toxicity, cell-based, HEK-293T. For orientation: Tetrazolium dyes change colour on reduction, which living cells bring about.
Data set [2] concerns MCF7. Nature of the data set: Induction of cell cycle arrest in human MCF7 cells assessed as accumulation of cells at G1/G0 phase at 10 uM incubated for 48 hrs by propidium iodide staining based flow cytometer analysis (reference value: 53.8 %). In kind it is functional. For orientation: In flow cytometry, cells or beads pass a laser one at a time.
For data set [3], the system named is MCF7. Nature of the data set: Induction of cell cycle arrest in human MCF7 cells assessed as accumulation of cells at S phase at 10 uM incubated for 48 hrs by propidium iodide staining based flow cytometer analysis (reference value: 14.6 %). In kind it is functional.
Data set [4] concerns MCF7. As to the kind of experiment: Induction of cell cycle arrest in human MCF7 cells assessed as accumulation of cells at G2/M phase at 10 uM incubated for 48 hrs by propidium iodide staining based flow cytometer analysis (reference value: 31.9 %). It counts as functional.
The test system of data set [5] is MCF7. Nature of the data set: Induction of apoptosis in human MCF7 cells assessed as viable cells at 10 uM incubated for 48 hrs by Annexin V-FITC/propidium iodide staining based flow cytometric analysis. In kind it is functional. To be noted: read-out: Activity.
The test system of data set [6] is MCF7. As to the kind of experiment: Induction of apoptosis in human MCF7 cells assessed as early apoptotic cells at 10 uM incubated for 48 hrs by Annexin V-FITC/propidium iodide staining based flow cytometric analysis (reference value: 2.4 %). It counts as functional.
Data set [7] has as its system MCF7. Nature of the data set: Induction of apoptosis in human MCF7 cells assessed as late apoptotic cells at 10 uM incubated for 48 hrs by Annexin V-FITC/propidium iodide staining based flow cytometric analysis (reference value: 3.4 %). In kind it is functional.
Data set [8] deals with MCF7. Nature of the data set: Induction of apoptosis in human MCF7 cells assessed as necrotic cells at 10 uM incubated for 48 hrs by Annexin V-FITC/propidium iodide staining based flow cytometric analysis (reference value: 1.3 %). It counts as functional.
In data set [9] the test system is MCF7. As to the kind of experiment: Antiproliferative activity against human MCF7 cells assessed as cell growth inhibition incubated for 48 hrs by MTT assay. In kind it is functional, cell-based. To be noted: MCF7, 48 h.
The test system of another data set is HT-29. As to the kind of experiment: Antiproliferative activity against human HT-29 cells assessed as cell growth inhibition incubated for 48 hrs by MTT assay. In kind it is functional, cell-based. The conditions noted are these: HT-29, 48 h.
A further data set deals with Cell membrane. Nature of the data set: Induction of mitochondrial membrane potential depolarization in human MCF7 cells at 10 uM incubated for 48 hrs by JC-1 staining based microplate reader assay. It counts as subcellular.
In data set [10] the target is T1, Tubulin (Sus scrofa) (UniProt P02554+P02550). As to the kind of experiment: Inhibition of porcine brain tubulin polymerization at 100 nM incubated for 60 mins in presence of GTP by spectrophotometric analysis. In kind it is tissue-based.
For data set [11], the target named is T1, Tubulin (Sus scrofa). Nature of the data set: Inhibition of porcine brain tubulin polymerization incubated for 60 mins in presence of GTP by spectrophotometric analysis. In kind it is tissue-based.
Data set [12] concerns the target T1, Tubulin (Sus scrofa). Nature of the data set: Inhibition of porcine brain tubulin polymerization at 3 uM incubated for 60 mins in presence of GTP by spectrophotometric analysis. It counts as tissue-based.

Structures are written as SMILES. Active and inactive are the calls of the source. The rule behind the calls is not given here.

T1 sequence (P02550 whole entry, looked up): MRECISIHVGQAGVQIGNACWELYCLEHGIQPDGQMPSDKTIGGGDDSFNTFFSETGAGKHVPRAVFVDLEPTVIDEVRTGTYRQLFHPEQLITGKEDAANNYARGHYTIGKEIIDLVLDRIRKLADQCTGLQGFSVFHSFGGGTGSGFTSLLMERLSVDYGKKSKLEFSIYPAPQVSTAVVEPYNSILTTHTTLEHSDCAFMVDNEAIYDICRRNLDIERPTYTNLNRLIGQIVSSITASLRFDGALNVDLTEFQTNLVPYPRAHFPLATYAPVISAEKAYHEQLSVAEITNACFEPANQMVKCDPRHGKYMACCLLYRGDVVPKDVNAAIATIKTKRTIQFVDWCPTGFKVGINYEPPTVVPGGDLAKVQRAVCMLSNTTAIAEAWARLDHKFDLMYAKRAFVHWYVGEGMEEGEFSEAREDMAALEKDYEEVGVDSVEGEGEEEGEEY
T1 sequence (P02554 whole entry, looked up): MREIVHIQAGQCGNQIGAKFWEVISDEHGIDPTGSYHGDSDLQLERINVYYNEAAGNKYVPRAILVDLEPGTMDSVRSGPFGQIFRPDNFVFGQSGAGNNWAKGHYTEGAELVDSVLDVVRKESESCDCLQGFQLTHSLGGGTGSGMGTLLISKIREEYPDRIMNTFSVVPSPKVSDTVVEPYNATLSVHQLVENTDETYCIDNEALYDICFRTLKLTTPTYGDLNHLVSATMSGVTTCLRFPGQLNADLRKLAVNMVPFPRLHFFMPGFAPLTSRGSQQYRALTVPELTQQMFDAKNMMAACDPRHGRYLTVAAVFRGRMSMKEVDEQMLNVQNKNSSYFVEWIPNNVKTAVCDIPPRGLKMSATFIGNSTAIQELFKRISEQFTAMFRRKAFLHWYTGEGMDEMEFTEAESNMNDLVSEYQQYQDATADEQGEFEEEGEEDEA

For the compound `COc1cc2c(c(OC)c1OC)-c1ccc(OC)c(=O)cc1[C@@H](NC(C)=O)CC2` [COLCHICINE], the half-maximal inhibitory concentration (IC50) with HeLa is 17.8 µM. Further, in data set [1], the IC50 at 48 h is above 25 µM. The Activity stood at 5.4% with MCF7 [2]; 4.1% with MCF7 [3]; 89.4% in the data set on MCF7 [4]; 15.5% in the data set on MCF7 [6]; 54% in the data set with MCF7 [7]; 2.8% in the data set on MCF7 [8]. Also, the viability at 10 µM in the data set with MCF7 [5] stood at 27.7%.

For `COc1cc2c(-n3cnnc3)nc(-c3ccccc3)nc2c(OC)c1OC`, the IC50 in the data set on MCF7 [9], in the data set with HeLa and in the data set on HT-29 was above 25 µM each time. Moreover, the 50% inhibitory concentration (IC50) at 48 h in [1] was above 25 µM.

Take `COc1cc2c(-n3nnc4ccccc43)nc(-c3ccc(Cl)cc3)nc2c(OC)c1OC`: the concentration for half-maximal inhibition (IC50) is 16.2 µM in the data set with MCF7 [9], above 25 µM in the data set with HeLa and 13 µM in the data set on HT-29. Besides, the 50% inhibitory concentration (IC50) at 48 h in [1] was above 25 µM.

`COc1ccc(-c2nc(-n3ccnc3)c3cc(OC)c(OC)c(OC)c3n2)cc1OC`: the results for the IC50 with MCF7 [9], with HeLa and in the data set with HT-29 were 22.1 µM, 18.7 µM and above 25 µM, respectively. For the same compound, the IC50 at 48 h in data set [1] was above 25 µM.

Turning to `COc1cc2c(-n3ccnc3)nc(-c3ccc(Cl)cc3)nc2c(OC)c1OC`, the IC50 with MCF7 [9] is 2.16 µM; in the data set on HeLa it was 8.53 µM; with HT-29, 10.4 µM. In addition, the IC50 at 48 h in data set [1] was above 25 µM. In addition, the Activity stood at 11.5% with MCF7 [2]; 4.9% with MCF7 [3]; 82.6% in the data set on MCF7 [4]; 19.9% in the data set on MCF7 [6]; 41.1% in the data set with MCF7 [7]; 4.1% in the data set with MCF7 [8]. The viability at 10 µM with MCF7 [5] is 34.9%. Besides, the outcome in the data set on Cell membrane was Active. The inhibition result at Tubulin (Sus scrofa) [10] was “Active”. Also, the inhibition entry at Tubulin (Sus scrofa) [11] was “Dose-Dependent Effect”.

Turning to `COc1ccc(-c2nc(-n3nnc4ccccc43)c3cc(OC)c(OC)c(OC)c3n2)cc1`, the half-maximal inhibitory concentration (IC50) in the data set with MCF7 [9] was 18.1 µM; in the data set with HeLa it was above 25 µM; with HT-29, above 25 µM. Besides, in data set [1], the 50% inhibitory concentration (IC50) at 48 h was above 25 µM.

As to `COc1cc2c(-n3nnc4ccccc43)nc(-c3ccccc3)nc2c(OC)c1OC`, the values for the concentration for half-maximal inhibition (IC50) in the data set on MCF7 [9], in the data set with HeLa and with HT-29 were 14.4 µM, above 25 µM and 23.1 µM, respectively. Further, the IC50 at 48 h in data set [1] is above 25 µM.

Take `CC(=O)O[C@H]1C(=O)[C@@]2(C)[C@H]([C@H](OC(=O)c3ccccc3)[C@]3(O)C[C@H](OC(=O)[C@H](O)[C@@H](NC(=O)c4ccccc4)c4ccccc4)C(C)=C1C3(C)C)[C@]1(OC(C)=O)CO[C@@H]1C[C@@H]2O`: the inhibition result at Tubulin (Sus scrofa) [12] is “Active”.

As to `COc1cc2c(-n3cnnc3)nc(-c3ccc(Cl)cc3)nc2c(OC)c1OC`, the values for the IC50 in the data set on MCF7 [9], with HeLa and in the data set on HT-29 were 8.33 µM, 13.3 µM and above 25 µM, respectively. The 50% inhibitory concentration (IC50) at 48 h in [1] is above 25 µM.

Turning to `COc1cc2c(N3CCOCC3)nc(-c3ccccc3)nc2c(OC)c1OC`, the half-inhibitory concentration (IC50) in the data set on MCF7 [9], in the data set with HeLa and in the data set with HT-29 was above 25 µM each time. Further, the IC50 at 48 h in [1] was above 25 µM.

As to `COc1cc2c(-n3ccnc3)nc(-c3ccc(Br)cc3)nc2c(OC)c1OC`, the IC50 in the data set with MCF7 [9] amounted to 6.37 µM; in the data set with HeLa, 17.4 µM; in the data set with HT-29, 6.76 µM. For the same compound, the IC50 at 48 h in [1] was above 25 µM. In addition, the Activity stood at 70.3% in the data set with MCF7 [2]; 8.5% with MCF7 [3]; 17.7% with MCF7 [4]; 9.4% with MCF7 [6]; 70.9% with MCF7 [7]; 7.9% in the data set with MCF7 [8]. Besides, the viability at 10 µM in the data set on MCF7 [5] amounted to 11.8%. The outcome in the data set on Cell membrane was inactive.

For `COc1cc2c(-n3nnc4ccccc43)nc(-c3ccc(Br)cc3)nc2c(OC)c1OC`, the concentration for half-maximal inhibition (IC50) with MCF7 [9] was 15.2 µM; in the data set on HeLa it was 10.2 µM; in the data set on HT-29, above 25 µM. In addition, in data set [1], the IC50 at 48 h was above 25 µM.

Regarding `COc1cc(-c2nc(-n3cnnc3)c3cc(OC)c(OC)c(OC)c3n2)cc(OC)c1OC`, the results for the half-inhibitory concentration (IC50) in the data set on MCF7 [9], in the data set on HeLa and in the data set on HT-29 were 23.4 µM, above 25 µM and 5.45 µM, respectively. Also, the half-inhibitory concentration (IC50) at 48 h in data set [1] is above 25 µM.

With `COc1cc(-c2nc(-n3nnc4ccccc43)c3cc(OC)c(OC)c(OC)c3n2)cc(OC)c1OC`, the IC50 with MCF7 [9], with HeLa and in the data set with HT-29 was above 25 µM in each case. The IC50 at 48 h in [1] was above 25 µM.

As for `COc1cc2c(-n3cnnc3)nc(-c3ccccc3C(F)(F)F)nc2c(OC)c1OC`, the IC50 in the data set on MCF7 [9] is 13.7 µM; in the data set on HeLa it was above 25 µM; in the data set on HT-29 it was 11.8 µM. For the same compound, the IC50 at 48 h in data set [1] was above 25 µM.

Regarding `COc1ccc(-c2nc(-n3cnnc3)c3cc(OC)c(OC)c(OC)c3n2)cc1`, the 50% inhibitory concentration (IC50) is above 25 µM in the data set with MCF7 [9], 10.3 µM with HeLa and above 25 µM in the data set with HT-29. Besides, the half-maximal inhibitory concentration (IC50) at 48 h in [1] is above 25 µM.

As to `COc1cc2c(-n3cnnc3)nc(-c3ccc(Br)cc3)nc2c(OC)c1OC`, the IC50 with MCF7 [9] is 8.59 µM; with HeLa, above 25 µM; with HT-29, above 25 µM. The IC50 at 48 h in data set [1] is above 25 µM.

In the case of `COc1cc2c(-n3ccnc3)nc(-c3ccccc3)nc2c(OC)c1OC`, the IC50 in the data set on MCF7 [9] was 12.2 µM; in the data set on HeLa, 14.7 µM; in the data set with HT-29, 15.2 µM. Besides, the half-inhibitory concentration (IC50) at 48 h in [1] is above 25 µM.

Broadly, the IC50 is the concentration that gives 50% inhibition.

(Values after ChEMBL document CHEMBL5321192, “Synthesis and screening of novel 4-N-heterocyclic-2-aryl-6,7,8-trimethoxyquinazolines as antiproliferative and tubulin polymerization inhibitors” (Bioorg Med Chem, 2022).)
